The results in this text go back to patent US9801922B2, “Compositions and methods of treating cancer” (UNIVERSITY OF IOWA RESEARCH FOUNDATION, priority 2011, dated 2017).

One data set has as its system SUM159 cells. Description: MitoSOX red oxidation, SUM159. It counts as cell-based, human. The procedure: (§1) FIGS. 4A-4C: MitoSOX oxidation in SUM159, MDA-MB231 and HMECs cells treated with BSO, DTPP and AUR. Asynchronously growing cultures of SUM159 (Panel A) MDA-MB231 (Panel B) and HMECs (Panel C) were plated and treated as described in FIG. 1. Monolayer cultures were harvested and trypsinized, washed once with PBS and labeled 20 minutes with 2 μM MitoSOX (in 0.1% DMSO) in PBS containing 5 mM pyruvate at 37° C. Each sample was then analyzed for the Mean fluorescence Intensity (MFI) of 10,000 cells by flow cytometry. Samples were assayed in triplicate; mean±1 SD of 1 experiment containing 3 treatment dishes per group (n=3), * or ^p<0.001 as compared to Control.
(§2) MitoSOX™ red oxidation to estimate mitochondrial superoxide production: To determine if DTPP can alter steady-state levels of superoxide originating from mitochondria in SUM159, MDA-MB231 and HMEC cells, the cationic superoxide sensitive dye, MitoSOX™red (Molecular Probes), was used. Cells were plated and treated as described earlier in clonogenic survival experiment. After the exposure, cells were trypsinized and washed with 5 mM/L pyruvate containing PBS once then labeled with MitoSOX™red (2 μM, in 0.1% DMSO, 20 minutes) at 37° C. After labeling, cells were kept on ice. Samples were analyzed using a FACScan flowcytometer (Becton Dickinson Immunocytometry System, INC., Mountain View, Calif.) (excitation 488 nm, emission 585 nm band-pass filter). The mean fluorescence intensity of 10,000 cells was analyzed in each sample and corrected for autofluorescence from unlabeled cells. The MFI data was normalized to control levels.

In data set [1] the test system is SUM159 human breast cancer cells. In words: Clonogenic cell survival, SUM159. To be noted: for cytotoxicity (clonogenic survival), in words: 500 nM AUR 15 min. It counts as cell-based. The procedure:
FIGS. 1A-D: BSO, DTPP and AUR treated SUM159, MDA-MB231 and HMEC Clonogenic survival. In Panel A (SUM 159), B (MDA-MB231) and C(HMEC), 150,000 cells/dish SUM159 or MDA-MB231 and 300,000 cells/dish were plated in 60 mm tissue culture dishes. After 48 hours, cells were given fresh complete HMECs media and treated with 100 μM BSO+/1 μM DTPP for 24 hours. 500 nM AUR were added 15 mins before the trypsinization of cells for clonogenic survival assay. In panel A-C, The error bars represent mean±1 SD of n=1 treatment dishes done in 3 separate experiments where each treatment dish was used to prepare 6-10 replicate cloning dishes for analysis. *p<0.001 as compared to Control. […] Mice growing Sum159 xenograft tumors were treated with 100 μM DTPP in drinking water for 2 weeks followed by i.p. injections of BSO 675 mg/kg followed in 2 hrs with Au 2.7 mg/kg. The day following injections tumors were harvested, digested and stained for ALDH positive cells. Each bar represents an average of at least three tumors. Error bars are SEM. *p<0.05 vs. control.
FIG. 2: BSO and AUR treated SUM159 dose response Clonogenic survival. 150,000 cells/dish SUM159 were plated in 60 mm tissue culture dishes. After 48 hours, cells were given fresh complete HMECs media and treated with 100 μM BSO 24 hours. 500 nM AUR were added 15 mins, 30 mins, 45 mins, 1 hr, 1.5 hrs and 3 hrs before the trypsinization. Cells were then collected and plated for clonogenic survival. In panel A-C, The error bars represent mean±1 SD of n=1 treatment dishes done in 3 separate experiments where each treatment dish was used to prepare 6-10 replicate cloning dishes for analysis. *p<0.001 as compared to SUM159 Control. ^p<0.001 as compared to HMEC Control.
FIGS. 3A-3B: Clonogenic survival of SUM159 and MDA-MB231 cells treated with BSO, DTPP and AUR in the presence of 20 mM NAC. Asynchronously growing cultures of SUM159 (panel A) and MDA-MB231 (panel B) were plated as described in FIG. 1. After 48 hours, cells were given fresh complete HMECs media and treated with 100 μM BSO+/1 μM DTPP in the presence or absence of 20 mM NAC for 24 hours. 500 nM AUR were added 15 mins before the trypsinization. cells were then collected and plated for clonogenic survival. In panel A, B, The error bars represent mean±1SD of n=1 treatment dishes done in 3 separate experiments where each treatment dish was used to prepare 6-10 replicate cloning dishes for analysis. *p<0.001 as compared to W/O NAC Control. ^p<0.001 as compared to W/NAC Control.
FIG. 6: BSO, DTPP and AUR treated SUM159 in the presence of 100 U/ml PEGSOD+/PEGCAT Clonogenic survival. Asynchronously growing cultures of SUM159 were plated as described in FIG. 1. After 48 hours, cells were given fresh complete HMECs media and treated with 100 μM BSO+/1 μM DTPP in the presence or absence of PEGSOD+/PEGCAT (100 U/mL each) for 24 hours. Control received PEG alone (18 μM) for 24 hours. 500 nM AUR were added 15 mins before the trypsinization. Cells were then collected and plated for clonogenic survival. In panel A, B, The error bars represent mean±1 SD of n=1 treatment dishes done in 3 separate experiments where each treatment dish was used to prepare 6-10 replicate cloning dishes for analysis. *p<0.001 as compared to PEG alone Control. ^p<0.001 as compared to PEGCAT Control, $ p<0.001 as compared to PEGSOD+CAT Control.
Clonogenic cell survival: To determine whether the DTPP exposure alters the cell proliferation in MDA-MB231, SUM159 and HMECs, 150,000 cells/dish of MDA-MB231 and SUM159 cells, and 300,000 cells/dish HMECs were plated in 60 mm tissue culture dishes. After 48 hours, at 24 hours prior to each clonogenic survival experiment, media in all the dishes were changed to HMECs media and then treated with 100 μM BSO and 1 μM DTPP for 24 h. Cells were treated with AUR for 15 minutes prior to each clonogenic survival experiment. […]

For a further data set, the system named is HMECs. Description: MitoSOX red oxidation, HMEC. It counts as cell-based, human. The procedure:
as §1, §2

In the case of `CCCCS(=N)(=O)CCC(N)C(=O)O` [BSO, L-buthionine-[S,R]-sulfoximine, reference compound], the “change in MitoSOX oxidation, in words” value with SUM159 cells (SUM159) was “did not exhibit any change in MitoSOX oxidation”; in the data set on HMECs it was “no effects on MitoSOX oxidation”. Moreover, the “cytotoxicity (clonogenic survival), in words” value in data set [1] (100 μM BSO, 1 μM DTPP 24 h) is on record as “did not cause significantly cytotoxicity”.
As to `CCCCCCCCCC[P+](c1ccccc1)(c1ccccc1)c1ccccc1` [DTPP, Decyl-Triphenylphosphonium], the “increase in MitoSOX red oxidation relative to control” value with SUM159 cells (SUM159, 1 μM DTPP, 100 μM BSO 24 h, 500 nM AUR 15 min) was determined as 9 fold. The “total amount of mitochondrial O2.- of SUM159 cells relative to HMECs after DTPP” value in the data set with SUM159 cells (SUM159 vs HMEC) worked out at 2 fold. In addition, the “survival fraction (of control cells) in the presence of NAC” value in data set [1] (1 μM DTPP with 20 mM NAC, 24 hrs) is reported as “at least 70%”. Besides, the “decrease in cell survival / survival fraction compared to control” value in data set [1] (100 μM BSO and/or 1 μM DTPP for 24 hours) is given as 70%-80%. Further, in data set [1] (100 μM BSO, 1 μM DTPP 24 h, 500 nM AUR 15 min (FIG. 1A)), the clonogenic cell killing entry is “at least 70%”. In data set [1] (PEG alone control), the “clonogenic survival without PEGSOD+PEGCAT” value amounted to 35%. Also, the “clonogenic survival with PEGSOD+PEGCAT” value in data set [1] (PEGSOD+PEGCAT 100 U/ml each) came to 70%. Further, the “increase in MitoSOX oxidation” value in the data set on HMECs (1 μM DTPP, 100 μM BSO 24 h, 500 nM AUR 15 min) is on record as 10 fold.
On to `CC[PH](CC)(CC)[Au][S][C@@H]1O[C@H](COC(C)=O)[C@@H](OC(C)=O)[C@H](OC(C)=O)[C@H]1OC(C)=O` [AUR, S-triethylphosphinegold(I)-2,3,4,6-tetra-O-acetyl-1-thio-β-D-glucopyranoside], for which the “change in MitoSOX oxidation, in words” value is “did not exhibit any change in MitoSOX oxidation” in the data set on SUM159 cells (SUM159) and “no effects on MitoSOX oxidation” with HMECs. The “cytotoxicity (clonogenic survival), in words” value in data set [1] (100 μM BSO, 1 μM DTPP 24 h) is “did not cause any significant cytotoxicity”.
